The supplement of paper PMC10307832

Key:
Test in all cases: relative viability (nuclei count vs DMSO), 5 days (fraction); higher = more cells survive
NCI-H647 = test system: NCI-H647
In short: (§1)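 Lung cancer cell lines in 1536-well plates got either a single drug or a fixed anchor-drug dose together with five library-drug doses (not always all listed) in √10 steps, by pin tool, on the day after seeding. Nuclei were counted after 5 days, and relative viability is the treated-to-vehicle ratio of nuclei counts. Values are medians of duplicate plates.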

NCI-H522 = test system: NCI-H522
In short: as §1

SK-MES-1 = test system: SK-MES-1
In short: as §1

HARA = test system: HARA
In short: as §1

HCC-827 = test system: HCC-827
In short: as §1

HCC-366 = test system: HCC-366
In short: as §1

SK-LU-1 = test system: SK-LU-1
In short: as §1

EKVX = test system: EKVX
In short: as §1

NCI-H1734 = test system: NCI-H1734
In short: as §1

NCI-H1792 = test system: NCI-H1792
In short: as §1

NCI-H2009 = test system: NCI-H2009
In short: as §1

NCI-H1993 = conditions: first compound 0.005 µM
In short: as §1

SMILES: Nc1ccn([C@@H]2O[C@H](CO)[C@@H](O)[C@@H]2O)c(=O)n1 [Cytarabine] + Nc1ncn([C@H]2C[C@H](O)[C@@H](CO)O2)c(=O)n1 [Decitabine] (partner 2 µM)
- relative viability (NCI-H647; first compound 0.005 µM): 0.307
- relative viability (NCI-H647; first compound 0.01581 µM): 0.239
- relative viability (NCI-H647; first compound 0.05 µM): 0.258
- relative viability (NCI-H647; first compound 0.1581 µM): 0.108
- relative viability (NCI-H647; first compound 0.5 µM): 0.0719
- relative viability (NCI-H522; first compound 0.005 µM): 0.653
- relative viability (NCI-H522; first compound 0.01581 µM): 0.608
- relative viability (NCI-H522; first compound 0.05 µM): 0.628
- relative viability (NCI-H522; first compound 0.1581 µM): 0.484
- relative viability (NCI-H522; first compound 0.5 µM): 0.335
- relative viability (SK-MES-1; first compound 0.005 µM): 0.29
- relative viability (SK-MES-1; first compound 0.01581 µM): 0.211
- relative viability (SK-MES-1; first compound 0.05 µM): 0.205
- relative viability (SK-MES-1; first compound 0.1581 µM): 0.183
- relative viability (SK-MES-1; first compound 0.5 µM): 0.155
- relative viability (HARA; first compound 0.005 µM): 0.448
- relative viability (HARA; first compound 0.01581 µM): 0.236
- relative viability (HARA; first compound 0.05 µM): 0.347
- relative viability (HARA; first compound 0.1581 µM): 0.173
- relative viability (HARA; first compound 0.5 µM): 0.18
- relative viability (HCC-827; first compound 0.005 µM): 0.232
- relative viability (HCC-827; first compound 0.01581 µM): 0.239
- relative viability (HCC-827; first compound 0.05 µM): 0.182
- relative viability (HCC-827; first compound 0.1581 µM): 0.152
- relative viability (HCC-827; first compound 0.5 µM): 0.167
- relative viability (HCC-366; first compound 0.005 µM): 0.402
- relative viability (HCC-366; first compound 0.01581 µM): 0.292
- relative viability (HCC-366; first compound 0.05 µM): 0.231
- relative viability (HCC-366; first compound 0.1581 µM): 0.0925
- relative viability (HCC-366; first compound 0.5 µM): 0.0894
- relative viability (SK-LU-1; first compound 0.005 µM): 0.526
- relative viability (SK-LU-1; first compound 0.01581 µM): 0.565
- relative viability (SK-LU-1; first compound 0.05 µM): 0.524
- relative viability (SK-LU-1; first compound 0.1581 µM): 0.462
- relative viability (SK-LU-1; first compound 0.5 µM): 0.372
- relative viability (EKVX; first compound 0.005 µM): 0.485
- relative viability (EKVX; first compound 0.01581 µM): 0.282
- relative viability (EKVX; first compound 0.05 µM): 0.259
- relative viability (EKVX; first compound 0.5 µM): 0.184
- relative viability (NCI-H1734; first compound 0.005 µM): 0.439
- relative viability (NCI-H1734; first compound 0.01581 µM): 0.27
- relative viability (NCI-H1734; first compound 0.05 µM): 0.188
- relative viability (NCI-H1734; first compound 0.1581 µM): 0.131
- relative viability (NCI-H1734; first compound 0.5 µM): 0.138
- relative viability (NCI-H1792; first compound 0.01581 µM): 0.647
- relative viability (NCI-H1792; first compound 0.05 µM): 0.387
- relative viability (NCI-H1792; first compound 0.1581 µM): 0.251
- relative viability (NCI-H1792; first compound 0.5 µM): 0.205
- relative viability (NCI-H2009; first compound 0.005 µM): 0.325
- relative viability (NCI-H2009; first compound 0.01581 µM): 0.363
- relative viability (NCI-H2009; first compound 0.05 µM): 0.342
- relative viability (NCI-H2009; first compound 0.1581 µM): 0.243
- relative viability (NCI-H2009; first compound 0.5 µM): 0.189
- relative viability (NCI-H1993): 0.584
